Laboratory results published in publication PMC5522427, “Structural and Functional Analysis of Latex Clearing Protein (Lcp) Provides Insight into the Enzymatic Cleavage of Rubber” (Scientific Reports, 2017).

Target: T1, LcpK30 (Streptomyces sp. K30, UniProt Q3L8N0)
T1 construct: gene lcp; monomer; residues 31-403 modelled; haem b
Assay: crystal structure of complex ([…] Å); EPR
Type: binding
Conditions: open state; imidazole coordinates haem iron as distal axial ligand, replacing Lys167; 0.2 M malate/imidazole pH 7.5 (crystal); 1 mM imidazole (EPR); ferric as isolated

T1 sequence (Q3L8N0 31-407): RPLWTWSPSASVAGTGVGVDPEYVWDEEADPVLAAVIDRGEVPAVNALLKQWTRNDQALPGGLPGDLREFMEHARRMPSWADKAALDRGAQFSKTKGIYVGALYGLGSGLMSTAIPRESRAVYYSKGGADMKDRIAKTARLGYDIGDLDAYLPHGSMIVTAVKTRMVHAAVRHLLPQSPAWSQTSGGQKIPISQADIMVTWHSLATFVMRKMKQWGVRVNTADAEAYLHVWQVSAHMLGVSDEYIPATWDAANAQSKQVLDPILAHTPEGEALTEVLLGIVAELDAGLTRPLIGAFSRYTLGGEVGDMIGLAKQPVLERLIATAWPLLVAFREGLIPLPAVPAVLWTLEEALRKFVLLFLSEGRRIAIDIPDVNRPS

c1c[nH]cn1 [imidazole]
crystal structure of complex (1.48 Å); EPR: the distal axial position at the haem iron was now occupied by an imidazole molecule
